Laboratory results reported in patent US9284333B2, “Fused pyrroledicarboxamides and their use as pharmaceuticals” (SANOFI, priority 2012, dated 2016).

The compounds below were run against Human TASK-1 channels (Homo sapiens (Human), UniProt O14649) (assay: Determination of the activity on the TASK-1 channel in Xenopus oocytes (two-microelectrode voltage clamp)). Conditions: compound concentration 5 μM.
Assay type: cell-based
In short: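 Current during 500 ms pulses to 40 mV from a −90 mV hold was recorded in oocytes expressing human TASK-1 for two days after cRNA injection. Compounds were added cumulatively to the ND96 bath (pH 7.4, room temperature). IC50 came from dose-response fitting of inhibition relative to pre-compound current.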

Chain of Human TASK-1 channels (O14649 whole entry): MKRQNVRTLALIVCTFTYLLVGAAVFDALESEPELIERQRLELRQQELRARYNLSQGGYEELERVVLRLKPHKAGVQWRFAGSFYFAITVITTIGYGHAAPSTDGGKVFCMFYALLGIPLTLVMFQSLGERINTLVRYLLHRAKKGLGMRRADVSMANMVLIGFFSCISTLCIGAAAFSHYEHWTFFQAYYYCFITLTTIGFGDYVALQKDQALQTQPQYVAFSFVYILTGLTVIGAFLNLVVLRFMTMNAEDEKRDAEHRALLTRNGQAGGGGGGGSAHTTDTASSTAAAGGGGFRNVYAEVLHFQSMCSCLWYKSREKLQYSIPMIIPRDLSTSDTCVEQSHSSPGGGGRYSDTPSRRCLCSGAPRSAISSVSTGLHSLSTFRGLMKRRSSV

| inhibition at 5 µM [%] | SMILES |
| --- | --- |
| 69 | CC[C@@H](NC(=O)c1cc(C(=O)N2CCC2C)n2c1COCC2)c1ccc(C(F)(F)F)nc1 (stereo partly drawn) [16pe, 6-(2-Methyl-azetidine-1-carbonyl)-3,4-dihydro-1H-pyrrolo[2,1-c][1,4]oxazine-8-carboxylic acid [(R)-1-(6-trifluoromethyl-pyridin-3-yl)-propyl]-amide] |
| 67 | CC[C@@H](NC(=O)c1cc(C(=O)N2CCC[C@@H]2c2ccc(C(F)(F)F)nc2)n2c1COCC2)c1ccccc1 [16ga, 6-[(R)-2-(6-Trifluoromethyl-pyridin-3-yl)-pyrrolidine-1-carbonyl]-3,4-dihydro-1H-pyrrolo[2,1-c][1,4]oxazine-8-carboxylic acid ((R)-1-phenyl-propyl)-amide] |

Same assay, conditions: human TASK-1 expressed in Xenopus oocytes, room temperature; read-out: IC50 value for TASK-1 inhibition

| SMILES | IC50 [nM] |
| --- | --- |
| CC[C@@H](NC(=O)c1cc(C(=O)N2CCCCC2)n2c1CCCC2)c1ccccc1 [16mi, 3-(Piperidine-1-carbonyl)-5,6,7,8-tetrahydro-indolizine-1-carboxylic acid ((R)-1-phenyl-propyl)-amide] | 590 |
| CCOC(=O)[C@H](C)N(C)C(=O)c1cc(C(=O)N[C@H](CC)c2ccccc2)c2n1CCOC2 [16l, (S)-2-{Methyl-[8-((R)-1-phenyl-propylcarbamoyl)-3,4-dihydro-1H-pyrrolo[2,1-c][1,4]oxazine-6-carbonyl]-amino}-propionic acid ethyl ester] | 170 |
| CC[C@@H](NC(=O)c1cc(C(=O)N[C@H](CC)c2cccc(OC)n2)n2c1COCC2)c1ccc(C(F)(F)F)nc1 [16pb, 3,4-Dihydro-1H-pyrrolo[2,1-c][1,4]oxazine-6,8-dicarboxylic acid 6-{[(R)-1-(6-methoxy-pyridin-2-yl)-propyl]-amide} 8-{[(R)-1-(6-trifluoromethyl-pyridin-3-yl)-propyl]-amide}] | 520 |
| CC[C@@H](NC(=O)c1cc(C(=O)N2CCOCC2)n2c1COCC2)c1ccccc1 [16eh, 6-(Morpholine-4-carbonyl)-3,4-dihydro-1H-pyrrolo[2,1-c][1,4]oxazine-8-carboxylic acid ((R)-1-phenyl-propyl)-amide] | 1700 |
| CC[C@@H](NC(=O)c1cc(C(=O)NC(C)c2ncccn2)c2n1CCOC2)c1ccccc1 (mixture of isomers) [16jz, 3,4-Dihydro-1H-pyrrolo[2,1-c][1,4]oxazine-6,8-dicarboxylic acid 6-[((R)-1-phenyl-propyl)-amide] 8-[(1-pyrimidin-2-yl-ethyl)-amide]] | 300 |
| CC[C@@H](NC(=O)c1cc(C(=O)NC(C)c2ncccn2)n2c1COCC2)c1ccccc1Cl (stereo partly drawn) [16nr, 3,4-Dihydro-1H-pyrrolo[2,1-c][1,4]oxazine-6,8-dicarboxylic acid 8-{[(R)-1-(2-chloro-phenyl)-propyl]-amide} 6-[(1-pyrimidin-2-yl-ethyl)-amide]] | 310 |
| CC[C@@H](NC(=O)c1cc(C(=O)N[C@@H](c2ccccc2)C2CC2)n2c1CCCC2)c1ccccc1 [16mv, 5,6,7,8-Tetrahydro-indolizine-1,3-dicarboxylic acid 3-[((R)-cyclopropyl-phenyl-methyl)-amide] 1-[((R)-1-phenyl-propyl)-amide]] | 48 |
| CC[C@H](NC(=O)c1cc(C(=O)N[C@H](CC)c2ccccc2)c2n1CCOC2)c1ccccc1 [16hs, 3,4-Dihydro-1H-pyrrolo[2,1-c][1,4]oxazine-6,8-dicarboxylic acid 6-[((S)-1-phenyl-propyl)-amide] 8-[((R)-1-phenyl-propyl)-amide]] | 100 |
| CC[C@@H](NC(=O)c1cc(C(=O)Nc2c(C)noc2C)n2c1COCC2)c1ccccc1 [16hg, 3,4-Dihydro-1H-pyrrolo[2,1-c][1,4]oxazine-6,8-dicarboxylic acid 6-[(3,5-dimethyl-isoxazol-4-yl)-amide] 8-[((R)-1-phenyl-propyl)-amide]] | 600 |
| CC[C@@H](NC(=O)c1cc(C(=O)N[C@H](CC)c2cncc(C(F)(F)F)c2)n2c1COCC2)c1ccccc1 [16hn, 3,4-Dihydro-1H-pyrrolo[2,1-c][1,4]oxazine-6,8-dicarboxylic acid 8-[((R)-1-phenyl-propyl)-amide] 6-{[(R)-1-(5-trifluoromethyl-pyridin-3-yl)-propyl]-amide}] | 690 |
| CC[C@@H](NC(=O)c1cc(C(=O)N2Cc3ccccc3C2)n2c1COCC2)c1ccccc1 [16ih, 6-(1,3-Dihydro-isoindole-2-carbonyl)-3,4-dihydro-1H-pyrrolo[2,1-c][1,4]oxazine-8-carboxylic acid ((R)-1-phenyl-propyl)-amide] | 200 |
| CC[C@@H](NC(=O)c1cc(C(=O)NCc2cnccn2)n2c1COCC2)c1ccccc1 [16gt, 3,4-Dihydro-1H-pyrrolo[2,1-c][1,4]oxazine-6,8-dicarboxylic acid 8-[((R)-1-phenyl-propyl)-amide] 6-[(pyrazin-2-ylmethyl)-amide]] | 310 |
| CC[C@@H](NC(=O)c1cc(C(=O)NC(C)c2ncccn2)c2n1CCOC2)c1ccccc1 (mixture of isomers) [16ka, 3,4-Dihydro-1H-pyrrolo[2,1-c][1,4]oxazine-6,8-dicarboxylic acid 6-[((R)-1-phenyl-propyl)-amide] 8-[(1-pyrimidin-2-yl-ethyl)-amide]] | 460 |
| CC[C@H](NC(=O)c1cc(C(=O)N[C@H](C)c2ccc(F)cc2)c2n1CCOC2)c1ncccn1 [16nw, 3,4-Dihydro-1H-pyrrolo[2,1-c][1,4]oxazine-6,8-dicarboxylic acid 8-{[(R)-1-(4-fluoro-phenyl)-ethyl]-amide} 6-[((S)-1-pyrimidin-2-yl-propyl)-amide]] | 200 |
| CC[C@@H](NC(=O)c1cc(C(=O)NCc2ccccc2S(C)(=O)=O)n2c1COCC2)c1ccccc1 [16gx, 3,4-Dihydro-1H-pyrrolo[2,1-c][1,4]oxazine-6,8-dicarboxylic acid 6-(2-methanesulfonyl-benzylamide) 8-[((R)-1-phenyl-propyl)-amide]] | 430 |
| CC[C@@H](NC(=O)c1cc(C(=O)N(CCO)CC2CC2)n2c1COCC2)c1ccccc1 [16hk, 3,4-Dihydro-1H-pyrrolo[2,1-c][1,4]oxazine-6,8-dicarboxylic acid 6-[cyclopropylmethyl-(2-hydroxy-ethyl)-amide] 8-[((R)-1-phenyl-propyl)-amide]] | 1400 |

Now from value to compound:

| IC50 [nM] | SMILES |
| --- | --- |
| 300 | CC[C@@H](NC(=O)c1cc(C(=O)N2CCC[C@@H]2C)n2c1COCC2)c1ccc(C(F)(F)F)cc1Cl [16cq, 6-((S)-2-Methyl-pyrrolidine-1-carbonyl)-3,4-dihydro-1H-pyrrolo[2,1-c][1,4]oxazine-8-carboxylic acid [(R)-1-(2-chloro-4-trifluoromethyl-phenyl)-propyl]-amide] |
| 230 | CC[C@@H](NC(=O)c1cc(C(=O)N2CCC[C@@H]2CC(=O)OC(C)C)n2c1COCC2)c1ccccc1 [16fo, {(R)-1-[8-((R)-1-Phenyl-propylcarbamoyl)-3,4-dihydro-1H-pyrrolo[2,1-c][1,4]oxazine-6-carbonyl]-pyrrolidin-2-yl}-acetic acid isopropyl ester] |
| 21 | CC[C@@H](NC(=O)c1cc(C(=O)N2CCC[C@@H]2C)n2c1COCC2)c1ccc(C(F)(F)F)s1 [16cf, 6-((S)-2-Methyl-pyrrolidine-1-carbonyl)-3,4-dihydro-1H-pyrrolo[2,1-c][1,4]oxazine-8-carboxylic acid [(R)-1-(5-trifluoromethyl-thiophen-2-yl)-propyl]-amide] |
| 69 | CC[C@@H](NC(=O)c1cc(C(=O)N2CCC[C@@H]2C)n2c1COCC2)c1ccccc1 [16a, 6-((S)-2-Methyl-pyrrolidine-1-carbonyl)-3,4-dihydro-1H-pyrrolo[2,1-c][1,4]oxazine-8-carboxylic acid ((R)-1-phenyl-propyl)-amide] |
| 150 | C[C@H]1CCCN1C(=O)c1cc(C(=O)NCc2c(F)cccc2Cl)c2n1CCOC2 [16nu, 6-((S)-2-Methyl-pyrrolidine-1-carbonyl)-3,4-dihydro-1H-pyrrolo[2,1-c][1,4]oxazine-8-carboxylic acid 2-chloro-6-fluoro-benzylamide] |
| 99 | CC[C@@H](NC(=O)c1cc(C(=O)N2CCC[C@@H]2C)n2c1COCC2)c1ncccc1Cl [16pf] |
| 9000 | C[C@H]1CCCN1C(=O)c1cc(C(=O)N[C@H]2CCc3nc(C(F)(F)F)ccc32)c2n1CCOC2 (racemic) [16cu, 6-((S)-2-Methyl-pyrrolidine-1-carbonyl)-3,4-dihydro-1H-pyrrolo[2,1-c][1,4]oxazine-8-carboxylic acid ((S)-2-trifluoromethyl-6,7-dihydro-5H-[1]pyrindin-5-yl)-amide] |
| 920 | CC[C@@H](NC(=O)c1cc(C(=O)N2CCCC2c2ccn(C)n2)n2c1COCC2)c1ccccc1 (stereo partly drawn) [16fv, 6-[2-(1-Methyl-1H-pyrazol-3-yl)-pyrrolidine-1-carbonyl]-3,4-dihydro-1H-pyrrolo[2,1-c][1,4]oxazine-8-carboxylic acid ((R)-1-phenyl-propyl)-amide] |
| 350 | CC[C@@H](NC(=O)c1cc(C(=O)N2CCC[C@@H]2C)n2c1COCC2)c1ccc(SC(F)(F)F)cc1 [16ax, 6-((S)-2-Methyl-pyrrolidine-1-carbonyl)-3,4-dihydro-1H-pyrrolo[2,1-c][1,4]oxazine-8-carboxylic acid [(R)-1-(4-trifluoromethylsulfanyl-phenyl)-propyl]-amide] |
| 61 | CC[C@@H](NC(=O)c1cc(C(=O)N2CCC[C@@H]2C)n2c1COCC2)c1cnc(OC)c(Cl)c1 [16b, 6-((S)-2-Methyl-pyrrolidine-1-carbonyl)-3,4-dihydro-1H-pyrrolo[2,1-c][1,4]oxazine-8-carboxylic acid [(R)-1-(5-chloro-6-methoxy-pyridin-3-yl)-propyl]-amide] |
| 670 | CCC(NC(=O)c1cc(C(=O)N2CCC[C@@H]2C)n2c1COCC2)c1nccs1 (stereo partly drawn) [16ae, 6-((S)-2-Methyl-pyrrolidine-1-carbonyl)-3,4-dihydro-1H-pyrroIo[2,1-c][1,4]oxazine-8-carboxylic acid (1-thiazol-2-yl-propyl)-amide] |
